± gives the expanded uncertainty stated by the source.
Key:
[1] = for Normal melting temperature: visual observation; for Glass transition temperature / Triple point temperature: DSC
[2] = Molar enthalpy of transition or fusion; conditions: DSC

NNC(=O)c1ccncc1 [isonicotinic acid hydrazide]
Normal melting temperature ([1]; Crystal): 172.69 ± 2 °C

NC(=O)c1cnccn1 [pyrazinecarboxamide]
Normal melting temperature ([1]; Crystal): 188.27 ± 0.16 °C

CCCCn1cc[n+](C)c1.F[B-](F)(F)F [1-butyl-3-methylimidazolium tetrafluoroborate]
Glass transition temperature [1]: -83.90 ± 8 °C

CCCCCCCCn1cc[n+](C)c1.O=S(=O)([O-])C(F)(F)F [1-octyl-3-methylimidazolium trifluoromethanesulfonate]
Triple point temperature ([1]; Crystal): 283.51 ± 1.2 K
Molar enthalpy of transition or fusion ([2]; Crystal 1): 5.76 ± 0.165 kcal/mol

CCCCn1cc[n+](C)c1.F[P-](F)(F)(F)(F)F [1-butyl-3-methylimidazolium hexafluorophosphate]
Triple point temperature ([1]; Crystal 1): 286.46 ± 1.2 K
Glass transition temperature [1]: -74.28 ± 1.2 °C
Molar enthalpy of transition or fusion ([2]; Crystal 1): 2.73 ± 0.0837 kcal/mol

CCCCn1cc[n+](C)c1.O=S(=O)([O-])C(F)(F)F [1-butyl-3-methylimidazolium trifluoromethanesulfonate]
Triple point temperature ([1]; Crystal): 291.46 ± 1.2 K
Molar enthalpy of transition or fusion ([2]; Crystal): 4.82 ± 0.141 kcal/mol

Reference: the NIST ThermoML archive (doi:10.1021/acs.jced.6b00201)
